Bridges are numbered along the chain shown (N, C = ends). Where no end group is shown, it is not given here.
What was measured:
Porcine adipose Tissue = experiment: Lipolytic activity in porcine adipose tissue; type: cell-based, pig; conditions: 0.5 μM peptide
Procedure: (§1) Adipose tissues were removed from animals and sliced into segments of approximately 200 mg each. Then the tissues were pre-incubated in 25 ml vials containing 2 ml of Krebs-Ringerbicarbonate (KRB) buffer, 4% defatted BSA and 5.5 mM glucose under an atmosphere of carbogen (95%O2/ 5%CO2) at 37° C. for 1 hour. Tissues were then transferred to another vials with fresh medium and the incubation was initiated by adding hGH 177-191 peptide or analogues into the vials. The mixtures were then incubated at 37° C. for 90 minutes. After incubation, the tissues wee removed and aliquots (200 μl) of samples withdrawn from the medium were assayed for the contents of glycerol or free fatty acid (FFA) either by the enzyme assay (glycerol kinase) or calorimetric (copper-dye) spectrometry. The NADH or color produced was then monitored by the absorption at 340 nm and 610 nm, respectively.
Since corresponding sequences of non-human mammals are effectively peptide variants of the human sequence, it is also therefore expected that those corresponding sequences will be effective in other mammals including humans.

C57BL/6J (ob/ob) mice = experiment: Chronic treatment of C57BL/6J (ob/ob) mice with peptide analogues; type: in vivo, mouse
Procedure: Animals were given a daily intraperitoneal injection of either saline (as control) or peptide analogue (500 μg/kg body weight). Each point represents the mean±SEM of 6 animals.
The treatment for the two groups of animals was as described in FIG. 11A. Each point represents the mean±SEM of 6 animals.
The animals of the same age and same sex were randomly divided into two groups, housed 6 per cage and maintained on a normal 12-hr light/dark cycle at a constant room temperature of 25° C. in the animal house of the Department of Biochemistry and—Molecular Biology, Monash University, Clayton, Australia. Animals were fed ad libitum on pre-determined quantity of animal pellets (Clark King, Melboume, Australia) and allowed free access to water at all times. The animals were given a daily intraperitoneal (i.p) injection of 0.1 ml of either the synthetic peptide (200-500 μg/kg body weight) or equivalent volume of physiological saline (0.9% sodium chloride) for appropriate number of days. The i.p. injection was administered with a 30G×½″ (0.31×13 mm) needle on a 1-ml disposable tuberculin syringes, and the site of injection was the lower left quadrant of the abdomen of the animals. To study the effects of controlled-delivery of hGH 177-191 and analogues, slow-release peptide-pellets in a diameter of 3 mm were implanted intradermally in the abdominal region of Zucker rats under anaesthesia. The body weight and food intake were monitored for the periods of time as indicated.
Cumulative weight gain and food consumption were determined at 3-day intervals by the measurements of body weight and uneaten food remaining in the cages. The animals were placed in a covered chamber to minimise movement during the weighing procedure. The food consumption data were obtained by subtracting the amount of uneaten food remaining in the cages from the original provision.
The animals were anaesthetised with sodium pentobarbitone (80 mg/kg body weight) 12 hr after the last dose of hGH 177-191. Blood samples were collected from the tail vein of anaesthetised animals 45 mins after the administration of anaesthetic. After being centrifuged at 2000×g for 5 minutes, plasma was removed from the samples and used for metabolite assays. Triglyceride and total cholesterol in plasma were measured by enzyme-spectrophotometric methods. The reagents are based on either a modified glycerol phosphate oxidase (GPO)-Trinder's type colour reaction^24 or a cholesterol oxidase-4-aminoantipyrine method^25. All assays were performed with the CentrifiChem System 400 (Union Carbide) containing an automated pipetter, a centrifugal analyser and a recording spectrophotometer. Seronorm Lipid (Nycomed Pharma Co., Oslo, Norway) was used as the calibrator.

[1] = system: Human Abdominal adipose Tissue; experiment: Antilipogenic activity in human abdominal adipose tissue; type: cell-based; conditions: 0.1 μM peptide; BSA + insulin
Procedure: (§2) The rate of the incorporation of exogenous [C^14]-glucose into total lipid in adipose tissue was measured as the index of anti-lipogenic activity of hGH 177-191.
Adipose tissues were sliced into segments of approximately 200 mg each and then placed in Krebs-Ringer bicarbonate (KRB) buffer (pH 7.4) containing 2% defatted BSA, and glucose (0.1 mg/ml) and gassed with 95% O2-5% CO2 at 37° C. After 1 hr preincubation, the tissues were transferred to another 2 ml of fresh media containing [C^14]-glucose (final specific activity 0.05 μCi/μmol), […] of insulin (0.1 mU/ml) for a further 90 min incubation (conditions as above). Then the tissues were removed, washed thoroughly with KRB buffer and lipid was extracted with 5 ml of chlorofom/methanol (2:1, v/v) The extraction solution was washed with 2 ml of MeOH-H2O solution containing 0.1% MgCl2. A 2.5 ml aliquot of the washed extraction solution was taken and transferred to scintillation vials. The [C^14] radioactivity was measured with a liquid scintillation counter. The rates of total lipid synthesis were expressed as μmol [C^14]-glucose incorporated into lipid/g tissue/hr.
(§3) Tables 6 and 7 show the in vitro antilipogenic and lipolytic activity of hGH 177-191 and two representative analogues (Ref Nos. 9604 and 9605) on human adipose tissue.

[2] = system: Human Subcutaneous adipose Tissue; experiment: Lipolytic activity in human subcutaneous adipose tissue; type: cell-based; conditions: 0.5 μM peptide
Procedure: as §1, §3

[3] = system: adipose tissues from male Zucker fatty (fa/fa) rats; experiment: In vitro glycerol release during lipolysis in isolated adipose tissue; type: cell-based, rat
Procedure: as §1

[4] = system: adipose tissues from male Zucker fatty (fa/fa) rats; experiment: In vitro inhibition of lipogenesis in isolated adipose tissue; type: cell-based, rat; conditions: structure-activity summary
Procedure: as §2
Adipose tissues were sliced into segments of approximately 200 mg each and then placed in Krebs-Ringer bicarbonate (KRB) buffer (pH 7.4) containing 2% defatted BSA, and glucose (0.1 mg/ml) and gassed with 95% O2-5% CO2 at 37° C. After 1 hr preincubation, the tissues were transferred to another 2 ml of fresh media containing [C^14]-glucose (final specific activity 0.05 μCi/μmol), and 0.3 μM of hGH 177-191 in the presence or absence of insulin (0.1 mU/ml) for a further 90 min incubation (conditions as above). Then the tissues were removed, washed thoroughly with KRB buffer and lipid was extracted with 5 ml of chlorofom/methanol (2:1, v/v) The extraction solution was washed with 2 ml of MeOH-H2O solution containing 0.1% MgCl2. A 2.5 ml aliquot of the washed extraction solution was taken and transferred to scintillation vials. The [C^14] radioactivity was measured with a liquid scintillation counter. The rates of total lipid synthesis were expressed as μmol [C^14]-glucose incorporated into lipid/g tissue/hr.

[5] = Post-treatment (Day 20-38), saline
[6] = Treatment (Day 0-18), i.p. 500 μg/kg daily

## 9604 (YLRIVQCRSVEGSCGF; disulfide 7-14; listed as Homo sapiens) [compound 9604]
Porcine adipose Tissue
  Glycerol released: 1600 ± 20 nmol/mg tissue/hour
C57BL/6J (ob/ob) mice; 16-week old ob/ob mice, chronic treatment, FIG. 12
  cumulative weight gain (in words): exceptional efficacy
[1]
  14C incorporation: 28 ± 3 Av DPM/mg tissue/hour

## 9605 (KLRIVQCRSVEGSCGF; disulfide 7-14; listed as Homo sapiens) [compound 9605]
Porcine adipose Tissue
  Glycerol released: 1350 ± 80 nmol/mg tissue/hour
[2]
  Glycerol released: 1100 ± 80 nmol/mg tissue/hour
[1]
  14C incorporation: 36 ± 2 Av DPM/mg tissue/hour

## 9401 (LRIVQCRSVEGSCGF; listed as Homo sapiens) [compound 9401]
[3]; peptide concentration 0.1 μM
  Glycerol release: 1.82 ± 0.02 μmol/g tissue/hr
[3]; peptide concentration 1.0 μM
  Glycerol release: 1.86 ± 0.12 μmol/g tissue/hr

## 9403 (LRKVQCRSVEGSCGF; disulfide 6-13; listed as Homo sapiens) [compound 9403]
[3]; peptide concentration 0.1 μM
  Glycerol release: 1.80 ± 0.03 μmol/g tissue/hr
[3]; peptide concentration 1.0 μM
  Glycerol release: 1.88 ± 0.13 μmol/g tissue/hr
C57BL/6J (ob/ob) mice; 26-week-old ob/ob mice, FIG. 11B
  average daily food consumption / appetite versus control (in words): No significance
C57BL/6J (ob/ob) mice; [5]
  Ave. food consumption: 5.03 ± 0.13 g/mouse/day
  Blood glucose: 6.0 ± 1.0 mM
  Body weight gain: 2.00 ± 0.24 g
  Final body weight: 56.70 ± 4.45 g
  Triglyceride: 0.54 ± 0.15 mM
C57BL/6J (ob/ob) mice; [6]
  Ave. food consumption: 4.82 ± 0.22 g/mouse/day
  Blood glucose: 6.2 ± 0.8 mM
  Body weight gain: -0.32 ± 0.23 g
  Final body weight: 54.42 ± 4.66 g
  Triglyceride: 0.49 ± 0.10 mM
C57BL/6J (ob/ob) mice; female ob/ob mice 26 weeks, Treatment (Day 0-18), i.p. 500 μg/kg daily
  Initial body weight: 54.74 ± 4.96 g
C57BL/6J (ob/ob) mice; female ob/ob mice, Post-treatment (Day 20-38), saline
  Initial body weight: 54.70 ± 4.15 g
C57BL/6J (ob/ob) mice; obese mice, FIG. 11A, i.p. 500 μg/kg daily, 18 days
  anti-obesity action on body weight gain (in words): anti-obesity actions

## 9404 (LRIVQCRSVEGSCGF-NH2; disulfide 6-13; N-terminus assumed; SMILES CC[C@H](C)[C@H](NC(=O)[C@H](CCCNC(=N)N)NC(=O)[C@@H](N)CC(C)C)C(=O)N[C@H](C(=O)N[C@@H](CCC(N)=O)C(=O)N[C@H]1CSSC[C@@H](C(=O)NCC(=O)N[C@@H](Cc2ccccc2)C(N)=O)NC(=O)[C@H](CO)NC(=O)CNC(=O)[C@H](CCC(=O)O)NC(=O)[C@H](C(C)C)NC(=O)[C@H](CO)NC(=O)[C@H](CCCNC(=N)N)NC1=O)C(C)C; listed as Homo sapiens) [compound 9404]
[3]; peptide concentration 0.1 μM
  Glycerol release: 1.75 ± 0.12 μmol/g tissue/hr
[3]; peptide concentration 1.0 μM
  Glycerol release: 1.94 ± 0.12 μmol/g tissue/hr

## 9407 (LRIVQCKSVEGSCGF; disulfide 6-13; listed as Homo sapiens) [compound 9407]
[4]
  activity according to the in vivo and in vitro assay results (in words): retains activity
[3]; peptide concentration 0.1 μM
  Glycerol release: 1.83 ± 0.11 μmol/g tissue/hr
[3]; peptide concentration 1.0 μM
  Glycerol release: 1.79 ± 0.07 μmol/g tissue/hr

From US6737407B1, “Treatment of obesity” (Metabolic Pharmaceuticals, Ltd., priority 1997, dated 2004)
